US20240376163A1, “PEPTIDE FOR INHIBITING CALCINEURIN AND USE THEREOF” (Seoul National University R&DB Foundation, priority 2023, published 2024)

Test system: Jurkat T cells
Experiment: mRNA sequencing of activated Jurkat T cells
Assay type: cell-based, human

PEITVTPPTP [CABIN1-L-1-2]
GPR108 FPKM (P+I): 37.394 FPKM
GPR183 FPKM (P+I): 4.735 FPKM
GRAP2 FPKM (P+I): 11.197 FPKM
GRK5 FPKM (P+I): 8.975 FPKM
GZMH FPKM (P+I): 13.893 FPKM
HAPLN3 FPKM (P+I): 58.345 FPKM
HDC FPKM (P+I): 23.209 FPKM
HHIP FPKM (P+I): 6.793 FPKM
HHIP-AS1 FPKM (P+I): 29.854 FPKM
HIVEP2 FPKM (P+I): 9.184 FPKM
HSP90B1 FPKM (P+I): 910.415 FPKM
HSP90B2P FPKM (P+I): 9.619 FPKM
HSPA5 FPKM (P+I): 449.173 FPKM
ICAM1 FPKM (P+I): 12.914 FPKM
ID2 FPKM (P+I): 15.335 FPKM
IER2 FPKM (P+I): 126.884 FPKM
IER3 FPKM (P+I): 26.899 FPKM
IFFO2 FPKM (P+I): 3.163 FPKM
IFIH1 FPKM (P+I): 12.37 FPKM
IFNG FPKM (P+I): 8.858 FPKM
IGLL1 FPKM (P+I): 3.244 FPKM
IGSF9B FPKM (P+I): 8.992 FPKM
IL2RA FPKM (P+I): 10.904 FPKM
IL3 FPKM (P+I): 6.298 FPKM
IL4I1 FPKM (P+I): 7.279 FPKM
IL16 FPKM (P+I): 8.304 FPKM
IL22 FPKM (P+I): 3.136 FPKM
IL23A FPKM (P+I): 17.874 FPKM
IMPA2 FPKM (P+I): 2.882 FPKM
IRF8 FPKM (P+I): 1.914 FPKM
IRF9 FPKM (P+I): 39.375 FPKM
ISM1 FPKM (P+I): 3.737 FPKM
JAK3 FPKM (P+I): 8.871 FPKM
JUN FPKM (P+I): 3.58 FPKM
JUNB FPKM (P+I): 56.126 FPKM
KBTBD11 FPKM (P+I): 2.772 FPKM
KCNK5 FPKM (P+I): 4.904 FPKM
KCTD11 FPKM (P+I): 2.303 FPKM
KIAA0922 FPKM (P+I): 12.911 FPKM
KIF1B FPKM (P+I): 13.254 FPKM
KIF3B FPKM (P+I): 14.583 FPKM
KLF2 FPKM (P+I): 1.375 FPKM
KSR1 FPKM (P+I): 5.998 FPKM
LAIR2 FPKM (P+I): 3.695 FPKM
LAMP3 FPKM (P+I): 9.828 FPKM
LAX1 FPKM (P+I): 7.578 FPKM
LDLRAP1 FPKM (P+I): 0.878 FPKM
LIME1 FPKM (P+I): 11.879 FPKM
LINC00152 FPKM (P+I): 31.801 FPKM
LINC00426 FPKM (P+I): 0.675 FPKM
LINC00528 FPKM (P+I): 5.927 FPKM
LINC00539 FPKM (P+I): 2.351 FPKM
LINC00977 FPKM (P+I): 0.266 FPKM
LOC729603 FPKM (P+I): 3.329 FPKM
LRRC8B FPKM (P+I): 4.298 FPKM
LRRC45 FPKM (P+I): 4.264 FPKM
LYPD3 FPKM (P+I): 2.662 FPKM
MAP2K3 FPKM (P+I): 43.237 FPKM
MAP2K6 FPKM (P+I): 0.955 FPKM
MBOAT2 FPKM (P+I): 3.202 FPKM
MCM4 FPKM (P+I): 27.291 FPKM
MCM5 FPKM (P+I): 33.895 FPKM
METRNL FPKM (P+I): 7.881 FPKM
MIR221 FPKM (P+I): 10.092 FPKM
MIR4435-1HG FPKM (P+I): 16.303 FPKM
MIR6891 FPKM (P+I): 31.815 FPKM
MMP10 FPKM (P+I): 22.372 FPKM
MRPL39 FPKM (P+I): 188.834 FPKM
MYO1D FPKM (P+I): 5.995 FPKM
MYO1G FPKM (P+I): 65.452 FPKM
MYO7B FPKM (P+I): 12.661 FPKM
NAMPT FPKM (P+I): 54.272 FPKM
NDFIP1 FPKM (P+I): 24.432 FPKM
NDFIP2 FPKM (P+I): 12.598 FPKM
NDST3 FPKM (P+I): 5.621 FPKM
NEIL3 FPKM (P+I): 8.336 FPKM
NEXN FPKM (P+I): 5.587 FPKM
NFE2L3 FPKM (P+I): 28.495 FPKM
NFKBIA FPKM (P+I): 70.837 FPKM
NFKBID FPKM (P+I): 8.294 FPKM
NFKBIE FPKM (P+I): 11.793 FPKM
NINJ1 FPKM (P+I): 54.452 FPKM
NKD2 FPKM (P+I): 3.105 FPKM
NKX3-1 FPKM (P+I): 8.412 FPKM
NLRC5 FPKM (P+I): 37.7 FPKM
NPY FPKM (P+I): 4.799 FPKM
NR4A1 FPKM (P+I): 34.85 FPKM
NR4A2 FPKM (P+I): 0.356 FPKM
NRROS FPKM (P+I): 26.059 FPKM
NT5M FPKM (P+I): 1.643 FPKM
NXN FPKM (P+I): 1.571 FPKM
OAS3 FPKM (P+I): 18.24 FPKM
OSBPL3 FPKM (P+I): 23.298 FPKM
PARP9 FPKM (P+I): 84.386 FPKM
PARP14 FPKM (P+I): 72.911 FPKM
PCBP3 FPKM (P+I): 4.642 FPKM
PDE3B FPKM (P+I): 5.194 FPKM
PEAK1 FPKM (P+I): 9.633 FPKM
PELI1 FPKM (P+I): 8.465 FPKM
PHEX FPKM (P+I): 0.786 FPKM
PHF7 FPKM (P+I): 3.075 FPKM
PHLDA1 FPKM (P+I): 52.893 FPKM
PIDD1 FPKM (P+I): 4.471 FPKM
PIM3 FPKM (P+I): 72.895 FPKM
PKIA FPKM (P+I): 18.138 FPKM
PLAU FPKM (P+I): 82.517 FPKM
PLEKHO1 FPKM (P+I): 36.376 FPKM
PLK3 FPKM (P+I): 7.036 FPKM
PMAIP1 FPKM (P+I): 37.469 FPKM
PMEPA1 FPKM (P+I): 2.393 FPKM
PODXL FPKM (P+I): 1.509 FPKM
POU3F2 FPKM (P+I): 0.696 FPKM
PPFIBP1 FPKM (P+I): 12.117 FPKM
PPM1H FPKM (P+I): 4.178 FPKM
PRKCA FPKM (P+I): 11.132 FPKM
PTK2 FPKM (P+I): 13.391 FPKM
PTPN22 FPKM (P+I): 5.119 FPKM
PTPRE FPKM (P+I): 14.28 FPKM
PWWP2B FPKM (P+I): 3.446 FPKM
PXMP2 FPKM (P+I): 7.334 FPKM
RAG1 FPKM (P+I): 0.265 FPKM
RAG2 FPKM (P+I): 0.385 FPKM
RAP1GAP2 FPKM (P+I): 0.285 FPKM
RAP1GAP FPKM (P+I): 1.799 FPKM
RDH10 FPKM (P+I): 5.524 FPKM
REL FPKM (P+I): 5.699 FPKM
RELB FPKM (P+I): 40.689 FPKM
RGS3 FPKM (P+I): 2.303 FPKM
RGS16 FPKM (P+I): 5.595 FPKM
RMI1 FPKM (P+I): 8.198 FPKM
RORB FPKM (P+I): 3.292 FPKM
S1PR1 FPKM (P+I): 0.461 FPKM
SAMD1 FPKM (P+I): 12.809 FPKM
SECISBP2L FPKM (P+I): 12.883 FPKM
SELPLG FPKM (P+I): 3.724 FPKM
SEMA7A FPKM (P+I): 34.623 FPKM
SERPINB2 FPKM (P+I): 14.103 FPKM
SERPINE1 FPKM (P+I): 4.431 FPKM
SH2B3 FPKM (P+I): 14.803 FPKM
SH2D5 FPKM (P+I): 3.557 FPKM
SH3BGRL3 FPKM (P+I): 351.357 FPKM
SH3RF2 FPKM (P+I): 32.15 FPKM
SHC4 FPKM (P+I): 0.686 FPKM
SIT1 FPKM (P+I): 34.287 FPKM
SIX6 FPKM (P+I): 19.444 FPKM
SLC2A3 FPKM (P+I): 40.147 FPKM
SLC2A4RG FPKM (P+I): 2.168 FPKM
SLC7A5 FPKM (P+I): 226.44 FPKM
SLC25A45 FPKM (P+I): 2.626 FPKM
SLCO3A1 FPKM (P+I): 3.095 FPKM
SLIT1 FPKM (P+I): 2.815 FPKM
SMIM14 FPKM (P+I): 3.572 FPKM
SOCS1 FPKM (P+I): 11.547 FPKM
SOCS3 FPKM (P+I): 9.392 FPKM
SOSTDC1 FPKM (P+I): 7.34 FPKM
SPRY2 FPKM (P+I): 17.876 FPKM
SREBF1 FPKM (P+I): 12.747 FPKM
ST3GAL6-AS1 FPKM (P+I): 8.479 FPKM
ST8SIA4 FPKM (P+I): 8.921 FPKM
STARD4 FPKM (P+I): 16.105 FPKM
STAT1 FPKM (P+I): 527.58 FPKM
STAT5A FPKM (P+I): 3.055 FPKM
STX11 FPKM (P+I): 2.972 FPKM
SYTL1 FPKM (P+I): 12.555 FPKM
TBC1D10C FPKM (P+I): 15.764 FPKM
TBC1D20 FPKM (P+I): 18.427 FPKM
TBX21 FPKM (P+I): 39.746 FPKM
THY1 FPKM (P+I): 3.297 FPKM
TIMP2 FPKM (P+I): 1.952 FPKM
TM4SF1 FPKM (P+I): 0.907 FPKM
TM7SF3 FPKM (P+I): 25.052 FPKM
TMEM229B FPKM (P+I): 7.747 FPKM
TMTC4 FPKM (P+I): 3.005 FPKM
TNFRSF4 FPKM (P+I): 11.916 FPKM
TNFRSF12A FPKM (P+I): 6.523 FPKM
TNFRSF14 FPKM (P+I): 12.09 FPKM
TNFSF9 FPKM (P+I): 2.651 FPKM
TNRC6C FPKM (P+I): 4.485 FPKM
TNS3 FPKM (P+I): 1.418 FPKM
TRAF1 FPKM (P+I): 24.962 FPKM
TRAT1 FPKM (P+I): 5.507 FPKM
TRIM22 FPKM (P+I): 3.316 FPKM
TSHR FPKM (P+I): 1.574 FPKM
TSPAN2 FPKM (P+I): 2.119 FPKM
TSPAN7 FPKM (P+I): 42.604 FPKM
TTC28 FPKM (P+I): 1.926 FPKM
TUBB2A FPKM (P+I): 10.912 FPKM
TUBB3 FPKM (P+I): 5.423 FPKM
UHRF1BP1L FPKM (P+I): 7.889 FPKM
USP30-AS1 FPKM (P+I): 9.017 FPKM
VANGL1 FPKM (P+I): 8.842 FPKM
VASH2 FPKM (P+I): 4.245 FPKM
VGF FPKM (P+I): 54.294 FPKM
XAF1 FPKM (P+I): 16.914 FPKM
XBP1 FPKM (P+I): 48.525 FPKM
XYLB FPKM (P+I): 2.311 FPKM
YBX2 FPKM (P+I): 1.594 FPKM
ZC3H12A FPKM (P+I): 17.547 FPKM
CD27 and CD70 expression (upon T-cell activation): inhibited CD27 and CD70
RNA levels of representative T-cell activation markers (IL2, IL3, NFATC1, CCL4, CCL20, CXCL8) (upon T-cell activation): reduced RNA levels of representative T-cell activation markers
